Counter-ions that a name gives are not always drawn.
Tests used:
Format in all cases: physicochemical
[1] = Drug content of the microparticles by UPLC assay; conditions: in spray dried microparticles of Example 1; mean±SD, n=5
[2] = Uniformity of distribution of the active ingredients in the powder formulation (UPLC-PDA); conditions: powder formulation of Example 3; for Content: sampled 10 times
Protocol: About 10 mg of the formulation was weighed directly into a 25 mL volumetric flask. It was sampled 10 times. The flask was made up to volume with 60:40% v/v MeOH:H2O and sonicated for 2 minutes. The samples were analyzed for each active ingredient using UPLC-PDA assay.

[3] = Aerosol performances by Next Generation Impactor (NGI) from NEXThaler; conditions: formulation of Example 3, NEXThaler, 60 L/min; mean±S.D., n=6
Protocol: Aerosol performances were determined using the Next Generation Impactor (NGI) with a USP induction port and pre-separator containing 15 mL 60:40% v/v MeOH:H2O. […] The aerodynamic particle size distribution was based on 5 actuations from the NEXThaler®, each sampled into 4 liters of air (equivalent to an inhalation time of 4 s). The device was weighed before and after each actuation to determine the shot weight (mg). A minimum of 1 minute was allowed between consecutive actuations to allow static charge to dissipate.
Samples were collected from the NGI using a fixed volume technique. MeOH:H2O (60:40% v/v) was dispensed into the induction port (including mouthpiece); pre-separator; and each stage using an electronic metering dispenser. The induction port (30 mL) and pre-separator (50 mL) were sealed using silicone bungs and shaken by hand for 2 minutes before the samples were collected. The NGI stages (10 mL stages 1-2; 15 mL stage 3-MOC) were rocked using a NGI rocker for 3 minutes. All samples were filtered using a 0.2 μm syringe filter before analysis by UPLC-PDA.

SMILES | Actual concentration [1] | % of Target [2] | Content [2] | DD (delivered dose) [3] | FPF (fine particle fraction) [3] | FPF < 1 μm (extrafine FPF) [3] | FPF < 2 μm (extrafine FPF) [3] | FPM (fine particle mass, ≤5.0 micron) [3] | MMAD [3]
C[N+]1(C)CCC(OC(=O)C(O)(c2ccccc2)C2CCCC2)C1 (racemic) [GB, glycopyrronium bromide] | 10.6 ± 0.1 % w/w | 105.37% | 12.64 ± 0.18 μg 10 mg^−1 | 11.5 ± 0.4 µg | 68.5 ± 3.7% | 21.7 ± 0.7% | 39.3 ± 1.6% | 7.9 ± 0.5 µg | 1.9 ± 0.1 μm
CCC(=O)OCC(=O)[C@@]1(OC(=O)CC)[C@@H](C)C[C@H]2[C@@H]3CCC4=CC(=O)C=C[C@]4(C)[C@@]3(Cl)[C@@H](O)C[C@@]21C [BDP, beclometasone dipropionate] | 82.0 ± 0.3 % w/w | 98.75% | 98.75 ± 1.23 μg 10 mg^−1 | 87.6 ± 2.2 µg | 68.5 ± 3.1% | 20.8 ± 0.7% | 38.6 ± 1.2% | 60.0 ± 3.6 µg | 1.9 ± 0.1 μm
COc1ccc(CC(C)NCC(O)c2ccc(O)c(NC=O)c2)cc1 (stereo not shown) [FF, formoterol fumarate dihydrate] | – | – | – | 5.2 ± 0.1 µg | – | – | – | – | –

— patent US20150352127A1, “INHALATION PARTICLES COMPRISING A COMBINATION OF AN ANTICHOLINERGIC, A CORTICOSTEROID AND A BETA-ADRENERGIC” (CHIESI FARMACEUTICI S.P.A., priority 2014, published 2015)
